Measured values taken from US5650394A, “Use of urinastatin-like compounds to prevent premature delivery” (Adeza Biomedical, priority 1993, dated 1997).

B1: urinastatin (protein, UniProt P02760 206-352, looked up)
Inter-alpha-trypsin inhibitor …: AVLPQEEEGSGGGQLVTEVTKKEDSCQLGYSAGPCMGMTSRYFYNGTSMACETFQYGGCMGNGNNFVTEKECLQTCRTVAACNLPIVRGPCRAFIQLWAFDAVKGKCVLFPYGGCQGNGNKFYSEKECREYCGVPGDGDEELLRFSN
modifications: Inter-alpha-trypsin inhibitor light chain
notes: glycoprotein of less than about 67 kD purified from human urine

Legend:
[1] = cited from earlier work; for time required for the number of uterine contractions (UC) to decrease to less than 1 per 30 minutes: 24th-35th weeks of pregnancy, tocolysis index 3-4, no PROM
[2] = Example 2 clinical comparison of regimens in 168 patients with imminent premature delivery; format: in vivo, human
Protocol: 168 patients in their 24th to 35 week of pregnancy were diagnosed with imminent premature delivery. The diagnosis of imminent premature delivery was based on a tocolysis index of 2 or greater. Factors of cervical dilation, ruptured membranes, uterine activity and vaginal bleeding were considered for the tocolysis index. The index is the sum of these points.
A number of regimens were compared. Group 1 received ritodrine intravenous infusion at 50-300 μg per day. Groups 2 and 3 were given daily urinastatin suppositories containing 5000 units and 1000 units, respectively. Group 4 received IV ritodrine at 50-300 μg per day and one 1000 unit urinastatin suppository per day. Group 5 received IV ritodrine at 50-300 μg per day, one 1000 unit urinastatin suppository per day, and cephalosporin. The patients were treated until they delivered.
The tocolysis index immediately before the start of treatment varied from 2-8. Elastase levels obtained from specimen of endocervical secretions were determined at admission to the study. "Hours to Neg UA", or the time until the number of uterine contractions in 30 minutes decreased to one or less, was reported. "Recur UA", or the proportion of women experiencing recurrence of at least one uterine contraction every 30 minutes after therapy lasting 4 days or longer was discontinued also was observed. "EGA Toco" is the estimated gestational age at the beginning of therapy. "EGA Del" is the estimated gestational age at delivery. The "interval" is the number of weeks between EGA Toco and EGA Del. "PTD<37 Wks" is the number of preterm births before 37 weeks. "PTD<34 Wks" is the number of preterm births before 34 weeks, or seriously premature infants.

granulocyte elastase = settings: patients treated with urinastatin (groups B, C and D); cited from earlier work

Row | Molecule | patients with recurrence of UC after therapy was discontinued ([1]; therapy discontinued when UC had been depressed for 4 days) | time required for the number of uterine contractions (UC) to decrease to less than 1 per 30 minutes ([1]; women) | women with premature deliveries ([1]; women, 24th-35th weeks, tocolysis index 3-4) [%] | preterm deliveries of less than 34 wk, share of all deliveries ([2]; PTD<34 Wks) | preterm deliveries of less than 37 wk, share of all deliveries ([2]; PTD<37 Wks) [%] | rate of recurrence of uterine activity ([2]; in spite of continuous administration of the drug) | Hours to Neg UA: time until uterine contractions in 30 minutes decreased to one or less ([2]; study average 3.1 hr) [h] | premature deliveries (number of patients) ([1]; groups B and D had 9 and 8 patients, group C 14) | elastase in vaginal secretions (granulocyte elastase)
1 | CC(NCCc1ccc(O)cc1)C(O)c1ccc(O)cc1 (stereo not shown) [ritodrine] | Approximately 60% | about an hour | 25 | approximately 21% | ~42 | over 30% | 1.4 |  | 
2 | B1 |  | about 6 hours |  |  |  |  |  | no premature deliveries | decreased
